Legend:
[1] = system: A549 lung adenocarcinoma cells; assay: A549 cell proliferation / growth inhibition; type: cell-based, human; conditions: for Selected from primary screen for growth inhibition of A549 cells at 50 μM: 50 μM compound, 1 mM glucose; for Selected for having an IC50 ratio (10 mM glucose: 1 mM glucose) of A549 growth higher than WBC-A: IC50 on 10 mM vs 1 mM glucose, compared with WBC-A
Outline: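 A549 growth screened in RPMI with 1 mM glucose, compounds at 50 μM; cell number from counts of Hoechst-stained nuclei after 3 days. Growth curves also followed by IncuCyte phase-contrast confluency over 3–5 days (1000–1500 cells/well), DMSO ≤0.1%, ≥4 technical repeats.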

tps1Δ cells = assay: Growth rescue of tps1Δ strain on glucose (growth curves, 2% galactose medium); type: cell-based, S. cerevisiae; conditions: 100 μM compound, 2.5 mM glucose
Outline: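 tps1Δ yeast pregrown in Complete Synthetic medium with 2% galactose, washed, resuspended to OD 0.1; compounds added 10 min before glucose. Growth followed as OD595 every 30 min at 30 °C in at least three technical replicates.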

SMILES	Selected from primary screen for growth inhibition of A549 cells at 50 μM [1]	Selected for having an IC50 ratio (10 mM glucose: 1 mM glucose) of A549 growth higher than WBC-A [1]	Rescue of the tps1Δ strain on 2.5 mM glucose at 100 μM (tps1Δ cells)
CCn1c(CCC(N)=O)nnc1Sc1nc(C)nc2scc(-c3cccs3)c12 [16C]	Yes	Lower IC50 ratio	Yes
Cc1sc2nc(CN3CCC(C)CC3)nc(Sc3nnc(C4CC4)n3CCC(N)=O)c2c1C [17A]	Yes	Lower IC50 ratio	No
Cc1sc2nc(-c3cccs3)nc(Sc3nnc(C)n3C)c2c1C [16A]	No	–	No
Cc1nc(Sc2nnc3sc4ccccc4n23)c2c3c(sc2n1)CCCC3 [51C]	No	–	No
c1ccc(-c2csc3ncnc(Sc4nnc5ccccn45)c23)cc1 [49A]	Yes	Lower IC50 ratio	No
COCCSc1nnc(C)c2cnn(-c3ccccc3)c12 [69C]	No	–	No
CCN(CC)CCSc1nc(C)nc2sc3c(c12)CCC3 [33C]	Yes	Lower IC50 ratio	No
Cc1nc(Sc2nnnn2C2CC2)c2c(-c3ccccc3)csc2n1 [56A]	Yes	Lower IC50 ratio	No
c1csc(-c2csc3nc(CN4CCOCC4)nc(Sc4nnc[nH]4)c23)c1 [55A]	No	–	Yes
OCCSc1nc(-c2cccs2)nc2scc(-c3ccccc3)c12 [23C]	Yes	Lower IC50 ratio	No
CCn1c(Sc2nc(C)nc3scc(-c4cccs4)c23)nnc1-c1ccncc1 [43C]	Yes	–	Yes
Cn1ccnc1Sc1nc(CN2CCOCC2)nc2scc(-c3cccs3)c12 [3C]	No	–	No
c1ccc2c(c1)sc1nnc(Sc3ncnc4sc5c(c34)CCCC5)n12 [62A]	No	–	No
CN(Cc1nnc2n1CCCCC2)c1ncnc2sc(-c3ccccc3)cc12 [34A]	No	–	No
c1ccc(-c2cc3c(N4CCCC4c4nnc5n4CCCCC5)ncnc3s2)cc1 (stereo not shown) [22A]	No	–	No
Cc1nc(SCC(=O)c2ccc(NC(=O)CC(C)C)cc2)c2c(-c3cccs3)csc2n1 [38B]	No	–	No
Cc1sc2nc(CSc3ccccc3)nc(NCc3nnc4n3CCCCC4)c2c1C [9A]	No	–	No
Cc1nc(SCCO)c2c3c(sc2n1)CCC3 [24C]	No	–	No
Cc1nc(SCCO)c2c(-c3cccs3)csc2n1 [47A]	Yes	Lower IC50 ratio	Yes
COCc1nc(Sc2nnc(CN)n2C)c2c(-c3ccccc3)csc2n1 [40A]	No	–	No
CCn1c(CN)nnc1Sc1nc(-c2ccccc2)nc2scc(-c3ccccc3)c12 [37A]	No	–	No
CC1CCc2c(sc3ncnc(Sc4nnc5n4CCCCC5)c23)C1 (stereo not shown) [31A]	No	–	No
Cc1nc(SCC(=O)N2CCOCC2)c2ccsc2n1 [78C]	No	–	No

SMILES	Selected from primary screen for growth inhibition of A549 cells at 50 μM [1]	Selected for having an IC50 ratio (10 mM glucose: 1 mM glucose) of A549 growth higher than WBC-A [1]	Rescue of the tps1Δ strain on 2.5 mM glucose at 100 μM (tps1Δ cells)
COC(=O)CSc1nc(CN2CCOCC2)nc2scc(-c3cccs3)c12 [37B]	No	–	No
Cc1nc(NCC(=O)Nc2c(C)cccc2C)c2c(-c3cccs3)csc2n1 [29C]	No	–	No
c1nc(Sc2nnc3n2CCCCC3)c2c3c(sc2n1)CCCC3 [65A]	No	–	No
NC(=O)CSc1ncnc2scc(-c3ccccc3)c12 [82C]	No	–	No
CCCn1c(Sc2nc(C)nc3scc(-c4cccs4)c23)nnc1-c1ccncc1 [34C]	Yes	Lower IC50 ratio	No
Cc1nc(SCC(=O)NC(C)(C#N)C2CC2)c2c(-c3cccs3)csc2n1 (stereo not shown) [18B]	Yes	Higher IC50 ratio, but false-positive	No
COc1ccc(-c2csc3nc(C)nc(Sc4nccn4C)c23)cc1OC [42A]	Yes	Lower IC50 ratio	No
Cc1nc(Sc2nnc(-c3ccco3)n2C)c2c(-c3cccs3)csc2n1 [25A]	No	–	No
Cc1ccc(-c2csc3ncnc(SCCN4CCOCC4)c23)cc1 [9C]	Yes	Lower IC50 ratio	No
Cc1nc(N2CCNC(=O)C2)c2c(-c3cccs3)csc2n1 [3B]	No	–	No
CCOC(=O)c1sc2nc(C)nc(SCC(=O)CC)c2c1C [12C]	No	–	No
Cc1nc(SCC(N)=O)c2c(-c3cccs3)csc2n1 [14A]	No	–	Yes
CCn1nnnc1Sc1nc(CN2CCOCC2)nc2scc(-c3cccs3)c12 [8C]	Yes	Lower IC50 ratio	No
Cc1nc(SC(C)C(=O)Nc2ccc(S(N)(=O)=O)cc2)c2c(-c3cccs3)csc2n1 (stereo not shown) [14B]	Yes	Lower IC50 ratio	No
Cc1nc(SCC(=O)NC(=O)NCc2ccco2)c2c(-c3cccs3)csc2n1 [28B]	No	–	No
CCOC(=O)CSc1nnc(C)c2cnn(-c3ccccc3)c12 [74C]	No	–	No
COc1ccc(OC)c(NC(=O)CSc2nc(C)nc3scc(-c4cccs4)c23)c1 [21B]	No	–	No
CC(Sc1nnc2n1CCCCC2)c1nc2scc(-c3cccs3)c2c(=O)[nH]1 (stereo not shown) [6A]	No	–	No
Cc1nc(Sc2nnnn2Cc2ccco2)c2c(-c3cccs3)csc2n1 [35C]	Yes	Lower IC50 ratio	No
Cc1sc2ncnc(Sc3nnc4n3CCCCC4)c2c1C [64A]	No	–	No
Cc1sc2ncnc(Sc3nnc4ccccn34)c2c1C [58A]	No	–	No
Cc1sc2nc(-c3cccs3)nc(N(C)Cc3nnc4n3CCCCC4)c2c1C [36A]	No	–	No
Cc1nc(SCC(=O)c2c(N)n(C)c(=O)n(C)c2=O)c2c(-c3cccs3)csc2n1 [1B]	No	–	No

Reference: patent US20240252508A1, “Novel glucose uptake inhibitors for use in the treatment of cancer” (NOVELYEAST BV, priority 2021, published 2024)
